Changes are numbered by the printed parent chain. Like-named read-outs stand apart in the source and are kept apart here.

In test [1] the target is T1, mutant MGL (Homo sapiens, UniProt Q99685, L169S/L176S).
T1 sequence (Q99685 1-303 L169S/L176S): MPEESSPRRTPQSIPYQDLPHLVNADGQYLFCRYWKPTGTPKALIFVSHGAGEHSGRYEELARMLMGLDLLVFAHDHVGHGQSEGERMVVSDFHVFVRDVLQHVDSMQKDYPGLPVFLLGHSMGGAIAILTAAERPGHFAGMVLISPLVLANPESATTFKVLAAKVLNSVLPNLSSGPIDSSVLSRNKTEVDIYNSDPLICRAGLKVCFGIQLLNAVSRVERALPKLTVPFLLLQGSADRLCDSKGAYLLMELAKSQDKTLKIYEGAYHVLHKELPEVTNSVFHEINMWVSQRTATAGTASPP
In words: MGL ThermoFluor assay - mutant. The test is classed as binding.

Test [2] deals with T2, purified wild type MGL (wt-MGLL 6H-11-313) (Homo sapiens, UniProt Q99685).
T2 sequence (Q99685 1-303): T1 sequence (Q99685 1-303 L169S/L176S) with S169L, S176L

The target in test [3] is T3, MGL (Rattus norvegicus, UniProt Q8R431).
T3 construct: one g rat brain was homogenized using a Polytron homogenizer; from tissue; host or cells: rat brain homogenate
T3 sequence (Q8R431 1-303): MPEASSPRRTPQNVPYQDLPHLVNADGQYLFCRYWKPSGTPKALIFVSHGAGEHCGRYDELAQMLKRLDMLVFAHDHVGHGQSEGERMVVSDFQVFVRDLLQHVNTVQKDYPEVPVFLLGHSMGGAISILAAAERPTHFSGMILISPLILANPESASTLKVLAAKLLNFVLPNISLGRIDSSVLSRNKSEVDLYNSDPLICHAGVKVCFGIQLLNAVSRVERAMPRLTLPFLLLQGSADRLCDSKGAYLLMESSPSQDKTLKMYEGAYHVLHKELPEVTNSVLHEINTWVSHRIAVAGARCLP
In words: 2-AG accumulation assay in rat brain homogenate. The test is classed as biochemical. Conditions: rat brain homogenate; compound 1 μM; 2-AG accumulation as percent of vehicle; read-out: Rat Brain 2AG % VehCntrl (%) @ 1 μM.

[4] abbreviates: ThermoFluor thermal stability binding assay, read-out: MGL mutant ThermoFluor Kd.
Where [5] appears, read: compound concentration measured by qNMR, read-out: MGL mutant ThermoFluor qKd (using qNMR conc.).
Where [6] appears, read: ThermoFluor concentration-response, read-out: MGL mutant ThermoFluor Kd.
The mark [7] stands for this setting: ThermoFluor, compound concentration measured by qNMR, read-out: MGL mutant ThermoFluor qKd (μM) (using qNMR conc.).

With `Cc1cc(-c2ccc(Cl)c(C(F)(F)F)c2)ccc1C(=O)N1CC(N2CCN(C(=O)c3cscn3)CC2)C1` [Cpd 254, 1-(1-{[4′-Chloro-3-methyl-3′-(trifluoromethyl)biphenyl-4-yl]carbonyl}azetidin-3-yl)-4-(1,3-thiazol-4-ylcarbonyl)piperazine], in test [1] (setting [4]), the Kd came to 0.0059 µM. Also, in test [2], the IC50 (as a rule, the concentration that inhibits the measured activity by half) was less than 5 nM. For the same molecule, the 2-AG accumulation, % of vehicle control at 1 µM in test [3] worked out at 544%.

Turning to `O=C(c1ccc[nH]1)N1CCN(C2CN(C(=O)c3nn(-c4ccc(Cl)cc4Cl)c4c3CSC/C4=C\c3ccc(F)cc3)C2)CC1` [Cpd 1024], the Kd in test [1] (setting [5]) was 0.135 µM. In test [2], this molecule yielded an IC50 of 69 nM. In addition, the 2-AG accumulation, % of vehicle control at 1 µM in test [3] worked out at 281%.

In the case of `O=C(c1ccccc1)N1CCN(C2CN(C(=O)c3ccc(OCc4ccc(Cl)s4)cc3)C2)CC1` [Cpd 972], the Kd in test [1] (setting [4]) was 0.08 µM. In test [2], this molecule came in with an IC50 of 23 nM. The 2-AG accumulation, % of vehicle control at 1 µM in test [3] is 683%.

For `Cc1c(C(=O)N2CC(N3CCN(C(=O)c4cscn4)CC3)C2)sc2ccc(C(F)(F)F)cc12` [Cpd 898], the Kd in test [1] (setting [4]) stood at 0.009 µM. Also, the IC50 in test [2] was less than 5 nM. Moreover, in test [3], the 2-AG accumulation, % of vehicle control at 1 µM amounted to 520%.

With `O=C(c1nccs1)N1CCN(C2CN(C(=O)c3sc4ccc(-c5ccc(C(F)(F)F)cc5)cc4c3F)C2)CC1` [Cpd 1092], the Kd in test [1] (setting [6]) was 0.005 µM. In addition, the IC50 in test [2] came to 11 nM. Further, the 2-AG accumulation, % of vehicle control at 1 µM in test [3] stood at 838%.

In the case of `CCCc1ccc(C(=O)N2CC(N3CCN(C(=O)c4nccs4)CC3)C2)cc1` [Cpd 655], the Kd in test [1] (setting [6]) was found to be 0.029 µM. In addition, in test [2], the IC50 came to 8 nM. Further, in test [3], the 2-AG accumulation, % of vehicle control at 1 µM was 359%.

As to `O=C(c1cccc(-c2cccc(C(F)(F)F)c2)c1)N1CC(N2CCN(C(=O)c3cscn3)CC2)C1` [Cpd 1188], in test [1] (setting [6]), the Kd stood at 0.855 µM. This molecule also gave an IC50 in test [2] of 94 nM. Further, the 2-AG accumulation, % of vehicle control at 1 µM in test [3] was 187%.

Consider `O=C(c1ccc2c(c1)CCN2c1ccc(F)cc1)N1CC(N2CCN(C(=O)c3ccc[nH]3)CC2)C1` [Cpd 1099], for which, in test [1] (setting [5]), the Kd amounted to 0.02 µM. This molecule also came in with an IC50 in test [2] of 12 nM. For the same molecule, the 2-AG accumulation, % of vehicle control at 1 µM in test [3] amounted to 508%.

As for `C/C(=C\c1ccc(Cl)cc1)c1c(C)c(C(=O)N2CC(N3CCN(C(=O)c4ccc[nH]4)CC3)C2)nn1-c1ccc(Cl)cc1Cl` [Cpd 1011], the Kd in test [1] (setting [6]) is 0.124 µM. In test [2], this molecule came in with an IC50 of less than 5 nM. Also, the 2-AG accumulation, % of vehicle control at 1 µM in test [3] stood at 994%.

`Cc1ccc(-n2ccc3cc(C(=O)N4CC(N5CCN(C(=O)C(F)(F)F)CC5)C4)ccc32)nc1` [Cpd 1184, 1-(5-Methylpyridin-2-yl)-5-({3-[4-(trifluoroacetyl)piperazin-1-yl]azetidin-1-yl}carbonyl)-1H-indole]: in test [1] (ThermoFluor, compound concentration measured by qNMR, read-out: MGL mutant ThermoFluor qKd (using qNMR conc.)), the Kd came out at 0.244 µM. For the same molecule, it took 86 nM to reach half-maximal inhibition in test [2] (IC50). Also, the 2-AG accumulation, % of vehicle control at 1 µM in test [3] was found to be 401%.

Consider `O=C(c1cscn1)N1CCN(C2CN(C(=O)c3cccc4nc(-c5ccc(F)cc5)oc34)C2)CC1` [Cpd 1282], for which the Kd in test [1] (setting [4]) stood at 0.2 µM. This molecule had an IC50 in test [2] of 2070 nM. Also, in test [3], the 2-AG accumulation, % of vehicle control at 1 µM turned out to be 128%.

As to `Cc1c(C(=O)N2CC(N3CCN(C(=O)c4nccs4)CC3)C2)[nH]c2ccc(-c3ccc(F)cc3)cc12` [Cpd 1075, 5-(4-Fluorophenyl)-3-methyl-2-({3-[4-(1,3-thiazol-2-ylcarbonyl)piperazin-1-yl]azetidin-1-yl}carbonyl)-1H-indole], in test [1] (setting [7]), the Kd was determined as 0.01 µM. This molecule also returned an IC50 in test [2] of 8 nM. For the same molecule, the 2-AG accumulation, % of vehicle control at 1 µM in test [3] stood at 833%.

As to `O=C(c1ccc(C2CCCCC2)cc1)N1CC(N2CCN(C(=O)c3nccs3)CC2)C1` [Cpd 889], the Kd in test [1] (setting [6]) is 0.002 µM. For the same molecule, the IC50 in test [2] is less than 5 nM. The 2-AG accumulation, % of vehicle control at 1 µM in test [3] stood at 683%.

Consider `O=C(c1ccns1)N1CC(N2CCN(C(=O)c3cc4cc(C(F)(F)F)ccc4s3)CC2)C1` [Cpd 703, 1-[1-(Isothiazol-5-ylcarbonyl)azetidin-3-yl]-4-{[5-(trifluoromethyl)-1-benzothiophen-2-yl]carbonyl}piperazine], for which, in test [1] (setting [6]), the Kd came to 0.05 µM. This molecule displayed an IC50 in test [2] of 88 nM. Moreover, in test [3], the 2-AG accumulation, % of vehicle control at 1 µM came to 346%.

Turning to `O=C(c1csnn1)N1CC(N2CCN(C(=O)c3cc4cc(C(F)(F)F)ccc4s3)CC2)C1` [Cpd 753], in test [1] (setting [6]), the Kd was 0.515 µM. For the same molecule, in test [2], the IC50 stood at 434 nM. Besides, in test [3], the 2-AG accumulation, % of vehicle control at 1 µM was 173%.

`Cc1cc(-c2ccccc2)ccc1C(=O)N1CC(N2CCN(C(=O)c3nccs3)CC2)C1` [Cpd 1074, 1-{1-[(3-Methylbiphenyl-4-yl)carbonyl]azetidin-3-yl}-4-(1,3-thiazol-2-ylcarbonyl)piperazine]: the Kd in test [1] (setting [6]) stood at 0.011 µM. The molecule also came in with an IC50 in test [2] of 8 nM. Further, the 2-AG accumulation, % of vehicle control at 1 µM in test [3] came to 303%.

As to `O=C(c1ccc(-c2ccc(C(F)(F)F)s2)cc1)N1CC(N2CCN(C(=O)c3ccc[nH]3)CC2)C1` [Cpd 1138], in test [1] (setting [6]), the Kd is 0.018 µM. Moreover, inhibition in test [2] was half-maximal at 26 nM (IC50). For the same molecule, in test [3], the 2-AG accumulation, % of vehicle control at 1 µM came to 271%.

In the case of `O=C(c1ccc2c(c1)CCN2Cc1ccc(C(F)(F)F)cc1)N1CC(N2CCN(C(=O)c3nccs3)CC2)C1` [Cpd 882], the Kd in test [1] (setting [6]) was determined as 0.012 µM. This molecule gave an IC50 in test [2] of less than 5 nM. For the same molecule, the 2-AG accumulation, % of vehicle control at 1 µM in test [3] came out at 697%.

As to `Cc1c(C(=O)N2CC(N3CCN(C(=O)c4cscn4)CC3)C2)sc2ccc(-c3ccccc3)cc12` [Cpd 1058, 1-{1-[(3-Methyl-5-phenyl-1-benzothiophen-2-yl)carbonyl]azetidin-3-yl}-4-(1,3-thiazol-4-ylcarbonyl)piperazine], the Kd in test [1] (setting [6]) came to 0.007 µM. The IC50 in test [2] worked out at 6 nM. The 2-AG accumulation, % of vehicle control at 1 µM in test [3] is 590%.

Consider `CCCCCCCCCCCCCCCC(=O)N1CC(N2CCN(C(=O)c3nccs3)CC2)C1` [Cpd 636], for which the Kd in test [1] (setting [6]) came to 0.119 µM. In test [2], the IC50 came out at 21 nM. For the same molecule, the 2-AG accumulation, % of vehicle control at 1 µM in test [3] is 296%.

For `COc1cc(C(=O)N2CC(N3CCN(C(=O)c4ccccc4)CC3)C2)ccc1-c1ccc(F)c(Cl)c1` [Cpd 263, 1-{1-[(3′-Chloro-4′-fluoro-2-methoxybiphenyl-4-yl)carbonyl]azetidin-3-yl}-4-(phenylcarbonyl)piperazine], the Kd in test [1] (setting [4]) worked out at 0.005 µM. Besides, the IC50 in test [2] is 28.5 nM. Further, the 2-AG accumulation, % of vehicle control at 1 µM in test [3] worked out at 199%.

Consider `O=C(c1ccc(-c2nc(-c3ccc(F)cc3)cs2)cc1)N1CC(N2CCN(C(=O)c3nccs3)CC2)C1` [Cpd 1082], for which the Kd in test [1] (setting [6]) is 0.003 µM. Moreover, inhibition in test [2] was half-maximal at 9 nM (IC50). Besides, the 2-AG accumulation, % of vehicle control at 1 µM in test [3] is 742%.

`O=C(c1nccs1)N1CCN(C2CN(C(=O)c3cccc4oc(-c5ccccc5)nc34)C2)CC1` [Cpd 1190]: the Kd in test [1] (setting [4]) came out at 0.008 µM. This molecule also yielded an IC50 in test [2] of 99 nM. For the same molecule, in test [3], the 2-AG accumulation, % of vehicle control at 1 µM was 126%.

For the molecule `O=C(c1ccc(-c2nc(-c3ccc(Cl)cc3Cl)cs2)cc1)N1CC(N2CCN(C(=O)c3nccs3)CC2)C1` [Cpd 1329], in test [1] (setting [6]), the Kd came to 0.006 µM. The molecule further registered an IC50 in test [2] of less than 5 nM. In addition, in test [3], the 2-AG accumulation, % of vehicle control at 1 µM stood at 834%.

For the molecule `Cc1sc(C(=O)N2CC(N3CCN(C(=O)c4nccs4)CC3)C2)cc1-c1ccc(F)cc1` [Cpd 1096], in test [1] (setting [7]), the Kd came out at 0.08 µM. In addition, the IC50 in test [2] came out at 11 nM. Further, the 2-AG accumulation, % of vehicle control at 1 µM in test [3] was found to be 449%.

With `Cc1cc(C(=O)N2CC(N3CCN(C(=O)c4nccs4)CC3)C2)sc1-c1ccc(C(F)(F)F)cc1` [Cpd 1352], in test [1] (setting [7]), the Kd turned out to be 0.008 µM. Besides, the IC50 in test [2] was less than 5 nM. For the same molecule, in test [3], the 2-AG accumulation, % of vehicle control at 1 µM stood at 548%.

Consider `O=C(c1ccc2c(c1)CCN2Cc1cccc(C(F)(F)F)c1)N1CC(N2CCN(C(=O)c3nccs3)CC2)C1` [Cpd 881], for which the Kd in test [1] (setting [6]) is 0.006 µM. The IC50 in test [2] was less than 5 nM. The 2-AG accumulation, % of vehicle control at 1 µM in test [3] stood at 847%.

The values above are taken from US8362000B2, “Azetidinyl diamides as monoacylglycerol lipase inhibitors” (Janssen Pharmaceutica NV, priority 2009, dated 2013).
